Laboratory results from patent US20030220415A1, “Heterocyclic amine diol compounds and their biocidal derivatives” (priority 2002, published 2003).
Like-named read-outs stand apart in the source and are kept apart here.

Tested on: Staphylococcus aureus bacteria
Conditions: 1957 mg/L solution, chlorine-demand-free water pH 7, ambient temperature

For CC1(C)C(=O)N(CN(CCO)CCO)C(=O)N1Cl [chlorinated heterocyclic amine diol, 1-chloro-3-[1-bis(N,N-2-hydroxyethyl)aminomethyl]-5,5-dimethyl-1,3-imidazolidin-2,4-dione], the “inactivation of Staphylococcus aureus” value (contact time 30 min) was over 5 logs and the “inactivation of Staphylococcus aureus” value (contact time 60 min) was over 5 logs.
